Results published in patent publication US20200317660A1, “Quinazolinone Compound and Application Thereof” (LUOXIN PHARMACEUTICAL (SHANGHAI) CO., LTD., priority 2017, published 2020).
Where two headings read alike, the source gives them in different places.

Tests used:
PI3Kγ = biological target: T1, PI3Kγ (Homo sapiens, UniProt P48736); test: In vitro test of enzyme activity (ADP-Glo lipokinase), PI3K gamma; format: biochemical; settings: 25 μM ATP, 50 μM PIP2:3PS, 120 min
T1 construct: purchased Millipore 14-558-K
Method: (§1) 1. In Vitro Test of Enzyme Activity
(§2) The lipokinase reaction was carried out under the conditions of a suitable substrate and ATP, followed by two steps to detect the kinase activity with the ADP-Glo™ kit. The first step was terminating the kinase reaction, wherein the remaining ATP was completely removed and only ADP was left; the second step was adding kinase detection reagents to convert ADP to ATP, accompanied by luciferin/luciferase reaction. Finally, the output value of fluorescence value was converted into kinase activity.
(§3) Experimental materials and equipments:
(§4) 2. Kit: ADP-Glo™ Lipokinase and PIP2:3PS Kit (Promega # V1792)
(§5) The kit contains: 1 mM PIP2:3PS, 10× lipid dilution buffer, 1 M magnesium chloride, 10 mM ATP, 10 mM ADP, ADP-Glo reagent, detection buffer and detection substrate.
(§6) 3. Reaction plate: OptiPlate-384, white and transparent (PerkinElmer #6007299).
(§7) 1. 10× reaction buffer: 500 mM HEPES, pH 7.5, 500 mM NaCl, 9 mM MgCl2; BSA: 10% stock solution, homemade.
(§8) 2. Final test system conditions: 1× reaction system: 50 mM HEPES, 50 mM NaCl, 3 mM MgCl2, 0.01% BSA (freshly prepared on the day of the experiment), 1% DMSO (v/v)+/−compound
(§9) 3. Reaction system: 3 μL mixture of the enzyme and the substrate (1:1)+2 μL ATP/MgCl2 mixture+5 μL ADP-Glo reagent+10 μL detection reagent.
(§10) The detailed experimental procedures are as follows:
(§11) 1. Compound dilution: 50 nL 100×compound/DMSO was transferred to the test well plate with Echo. • For PI3Kα, the compound was diluted three-fold from the highest concentration of 0.111 mM for a total of 10 concentrations. • For PI3Kβ/PI3Kδ/PI3Kγ, the compound was three-fold diluted from the highest concentration of 1.11 mM for a total of 10 concentrations.
(§12) (1) The compound to be tested was prepared and 50 nL of 100 plus compound solution or DMSO was added to the corresponding well plate.
(§13) (2) 3.33 plate reaction buffer was prepared.
(§14) (3) 3.33 solution PIP2:3PS was prepared, PIP2:3PS was thawed for at least 1 minute before use.
(§15) (4) 2.5 mM containing 5.25 mM MgCl2 was prepared.
(§16) (5) 3.33 PI3Kα/PI3Kβ/PI3Kδ/PI3Kγ solution was prepared.
(§17) (6) The lipokinase solution and the PIP2:3PS solution were mixed in a volume ratio of 1:1.
(§18) (7) 3.33: lipokinase buffer and PIP2:3PS solution were mixed in a volume ratio of 1:1.
(§19) (8) 3 μL of buffer solution and PIP2:3PS were added to the first and the second columns of the well plate.
(§20) (9) 3 μL of the mixed solution of the enzyme and PIP2:3PS was added to the wells except the first and the second columns, centrifuged for 10 seconds (1000 rpm) and incubated at 23° C. for 20 minutes.
(§21) (10) 2 μL […] was added and well was shaken.
(§22) (11) The well plate was covered and shaken for about 30 s, then the well plate was incubated at 23° C. for 2 hours.
(§23) (12) 5 μL of ADP-Glo reagent containing 10 mM MgCl2 was added.
(§24) (13) The well plate was centrifuged at 1000 rpm for 10 seconds, and the well plate was then covered, shaken for about 30 seconds, and incubated at 23° C. for 60 minutes.
(§25) (14) 10 μL kinase detection reagent was added.
(§26) (15) The well plate was centrifuged at 1000 rpm for 10 seconds, and then incubated at 23° C. for 60 minutes.
(§27) (16) The fluorescence value was measured on the Envision instrument.

PI3Kα = biological target: T2, PI3Kα (Homo sapiens, UniProt P42336); test: In vitro test of enzyme activity (ADP-Glo lipokinase), PI3K alpha; format: biochemical; settings: 40 μM ATP, 50 μM PIP2:3PS, 120 min
T2 construct: purchased Millipore 14-602-K
Method: as §1, §2, §3, §4, §5, §6, §7, §8, §9, §10, §11, §12, §13, §14, §15, §16, §17, §18, §19, §20, §21, §22, §23, §24, §25, §26, §27

PI3Kβ = biological target: T3, PI3Kβ (Homo sapiens, UniProt P42338); test: In vitro test of enzyme activity (ADP-Glo lipokinase), PI3K beta; format: biochemical; settings: 40 μM ATP, 50 μM PIP2:3PS, 120 min
T3 construct: purchased Promega V1751
Method: as §1, §2, §3, §4, §5, §6, §7, §8, §9, §10, §11, §12, §13, §14, §15, §16, §17, §18, §19, §20, §21, §22, §23, §24, §25, §26, §27

PI3Kδ = biological target: T4, PI3Kδ (Homo sapiens, UniProt O00329); test: In vitro test of enzyme activity (ADP-Glo lipokinase), PI3K delta; format: biochemical; settings: 40 μM ATP, 50 μM PIP2:3PS, 120 min
T4 construct: purchased Millipore 14-604-K
Method: as §1, §2, §3, §4, §5, §6, §7, §8, §9, §10, §11, §12, §13, §14, §15, §16, §17, §18, §19, §20, §21, §22, §23, §24, §25, §26, §27

[1] = system: phosphorylation of PI3K downstream protein Akt in MCF7 cells; test: In vitro test of cells activity: ELISA of Akt phosphorylation in MCF7 cells; format: cell-based; settings: 2 h compound, insulin 10 μg/mL stimulation, pAkt ELISA, read-out: MCF7 Cell IC50
Method: 2. In vitro test of cells activity
By the method of ELISA, the inhibition level of the test compound on the phosphorylation of PI3K downstream protein Akt in the signaling pathway was determined in MCF7 cells line to reflect the cells activity of the compound.
Cell culture medium: complete cell culture medium (RPMI 1640+10% serum+1% L-glutamine+1% double antibody)
Serum-free medium (without serum, RPMI 1640+1% L-glutamine+1% double antibody)
The detailed procedures areas follows:
(1) MCF7 cells (ATCC® HTB-22™) were inoculated into a 96-well plate at 100 μL of cell complete medium per well (2.5*10^4 cells per well), and the cells were incubated at 37° C. and 5% CO2 for 24 hours.
(2) The complete cell culture medium was replaced with 100 μL of serum-free medium, and incubated for starvation overnight.
(3) The compound was prepared (The initial concentration of the compound is 1 mM, which was subjected to a three-fold dilution in 10 concentrations, and the compound of each concentration was then diluted 100-fold with serum-free medium). 25 μL of the diluted compound was added to the cells orifice plate.
(4) The cells were incubated at 37° C. and 5% CO2 for 2 hours.
(5) The cells in the well plate were stimulated with 10 μg/mL insulin (Sigma # I9278-5 mL), incubated for 30 minutes, and then centrifuged at 1000 rpm for 5 minutes at room temperature.
(6) 250 μL of 1× balanced salt solution (Invitrogen, #14065-056, 4° C., containing 1 mM/L Na3VO4) was added to each well to wash the cells once.
(7) 100 μL of lysis buffer (trimethylolaminomethane hydrochloride, Invitrogen, #15567-1000 ml) was added to each well, shaken at 4° C. for 60 minutes, and then centrifuged at 4000 rpm for 4 minutes.
(8) The following procedures were carried out according to the instructions of ELISA kit (TGR BioSciences # EKT002).

T4 sequence (O00329 whole entry): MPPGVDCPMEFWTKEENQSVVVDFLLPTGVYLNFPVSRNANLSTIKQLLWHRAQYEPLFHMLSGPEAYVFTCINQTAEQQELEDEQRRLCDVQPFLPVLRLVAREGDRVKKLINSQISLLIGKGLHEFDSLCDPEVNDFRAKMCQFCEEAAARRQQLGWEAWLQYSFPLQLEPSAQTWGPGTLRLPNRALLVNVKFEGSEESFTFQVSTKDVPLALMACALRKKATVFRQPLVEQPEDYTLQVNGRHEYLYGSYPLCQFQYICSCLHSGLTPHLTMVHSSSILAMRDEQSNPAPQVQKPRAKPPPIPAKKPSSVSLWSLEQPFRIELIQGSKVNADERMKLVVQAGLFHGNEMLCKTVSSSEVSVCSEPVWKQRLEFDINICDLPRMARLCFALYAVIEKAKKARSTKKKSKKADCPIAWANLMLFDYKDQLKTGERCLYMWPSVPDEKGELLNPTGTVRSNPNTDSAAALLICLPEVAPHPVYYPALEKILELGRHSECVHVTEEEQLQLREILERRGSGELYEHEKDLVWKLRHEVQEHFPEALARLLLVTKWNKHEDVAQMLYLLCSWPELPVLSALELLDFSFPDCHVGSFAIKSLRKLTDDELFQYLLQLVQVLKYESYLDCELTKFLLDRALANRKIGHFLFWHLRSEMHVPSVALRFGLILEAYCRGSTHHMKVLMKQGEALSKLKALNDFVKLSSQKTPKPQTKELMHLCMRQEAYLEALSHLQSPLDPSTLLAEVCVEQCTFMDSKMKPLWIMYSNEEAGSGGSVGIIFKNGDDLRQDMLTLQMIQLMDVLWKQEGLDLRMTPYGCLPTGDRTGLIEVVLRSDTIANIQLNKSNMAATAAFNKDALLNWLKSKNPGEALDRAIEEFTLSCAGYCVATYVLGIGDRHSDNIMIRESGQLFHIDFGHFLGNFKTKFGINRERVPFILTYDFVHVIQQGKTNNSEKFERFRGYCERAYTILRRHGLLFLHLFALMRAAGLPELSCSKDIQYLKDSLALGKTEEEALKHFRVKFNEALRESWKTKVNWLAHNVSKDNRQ
T4 sequence (P27986 whole entry partner): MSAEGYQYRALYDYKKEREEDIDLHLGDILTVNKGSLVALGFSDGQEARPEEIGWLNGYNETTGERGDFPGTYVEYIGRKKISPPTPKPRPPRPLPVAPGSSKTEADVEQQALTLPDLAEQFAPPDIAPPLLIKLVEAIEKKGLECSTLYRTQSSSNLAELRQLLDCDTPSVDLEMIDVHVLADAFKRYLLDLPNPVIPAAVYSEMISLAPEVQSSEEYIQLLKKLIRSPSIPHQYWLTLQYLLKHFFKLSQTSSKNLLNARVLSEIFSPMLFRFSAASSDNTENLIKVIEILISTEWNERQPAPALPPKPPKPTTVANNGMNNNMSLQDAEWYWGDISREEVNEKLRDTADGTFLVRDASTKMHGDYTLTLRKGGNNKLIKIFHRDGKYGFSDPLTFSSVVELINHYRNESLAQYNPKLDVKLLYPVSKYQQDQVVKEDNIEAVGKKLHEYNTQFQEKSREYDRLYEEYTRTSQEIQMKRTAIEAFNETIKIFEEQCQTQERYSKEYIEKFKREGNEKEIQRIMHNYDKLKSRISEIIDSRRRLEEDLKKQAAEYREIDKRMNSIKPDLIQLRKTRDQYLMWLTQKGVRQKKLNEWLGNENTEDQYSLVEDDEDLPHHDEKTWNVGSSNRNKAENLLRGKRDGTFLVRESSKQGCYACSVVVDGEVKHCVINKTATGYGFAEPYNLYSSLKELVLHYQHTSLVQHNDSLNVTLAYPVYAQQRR
T3 sequence (P42338 whole entry): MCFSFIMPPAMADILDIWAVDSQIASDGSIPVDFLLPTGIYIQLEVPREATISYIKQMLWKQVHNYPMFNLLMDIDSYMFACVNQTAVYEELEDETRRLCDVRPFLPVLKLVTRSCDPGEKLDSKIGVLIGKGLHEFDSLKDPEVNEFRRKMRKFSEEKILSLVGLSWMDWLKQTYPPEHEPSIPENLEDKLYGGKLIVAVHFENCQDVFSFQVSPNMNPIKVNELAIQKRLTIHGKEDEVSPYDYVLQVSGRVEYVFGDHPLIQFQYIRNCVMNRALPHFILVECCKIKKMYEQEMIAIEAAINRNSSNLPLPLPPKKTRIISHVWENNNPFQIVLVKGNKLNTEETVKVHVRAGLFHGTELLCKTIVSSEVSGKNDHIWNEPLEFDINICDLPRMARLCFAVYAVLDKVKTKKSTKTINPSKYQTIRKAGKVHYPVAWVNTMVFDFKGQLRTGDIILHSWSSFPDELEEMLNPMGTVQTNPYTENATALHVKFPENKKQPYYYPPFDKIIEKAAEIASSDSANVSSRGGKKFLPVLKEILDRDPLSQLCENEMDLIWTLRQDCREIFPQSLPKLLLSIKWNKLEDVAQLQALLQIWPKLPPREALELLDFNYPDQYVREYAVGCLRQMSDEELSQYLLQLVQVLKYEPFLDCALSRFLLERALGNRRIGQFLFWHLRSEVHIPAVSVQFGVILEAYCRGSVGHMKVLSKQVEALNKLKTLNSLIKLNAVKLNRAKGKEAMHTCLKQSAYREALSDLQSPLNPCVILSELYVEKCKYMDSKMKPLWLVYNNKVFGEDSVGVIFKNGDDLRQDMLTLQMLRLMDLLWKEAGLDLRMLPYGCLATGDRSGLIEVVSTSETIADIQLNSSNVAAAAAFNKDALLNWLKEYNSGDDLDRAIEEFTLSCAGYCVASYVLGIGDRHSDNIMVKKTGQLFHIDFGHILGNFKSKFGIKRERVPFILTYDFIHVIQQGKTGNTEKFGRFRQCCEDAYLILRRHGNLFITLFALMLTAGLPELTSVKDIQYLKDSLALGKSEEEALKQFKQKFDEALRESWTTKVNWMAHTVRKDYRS
T3 sequence (P27986 whole entry partner): as the sequence (P27986 whole entry partner) above
T1 sequence (P48736 whole entry): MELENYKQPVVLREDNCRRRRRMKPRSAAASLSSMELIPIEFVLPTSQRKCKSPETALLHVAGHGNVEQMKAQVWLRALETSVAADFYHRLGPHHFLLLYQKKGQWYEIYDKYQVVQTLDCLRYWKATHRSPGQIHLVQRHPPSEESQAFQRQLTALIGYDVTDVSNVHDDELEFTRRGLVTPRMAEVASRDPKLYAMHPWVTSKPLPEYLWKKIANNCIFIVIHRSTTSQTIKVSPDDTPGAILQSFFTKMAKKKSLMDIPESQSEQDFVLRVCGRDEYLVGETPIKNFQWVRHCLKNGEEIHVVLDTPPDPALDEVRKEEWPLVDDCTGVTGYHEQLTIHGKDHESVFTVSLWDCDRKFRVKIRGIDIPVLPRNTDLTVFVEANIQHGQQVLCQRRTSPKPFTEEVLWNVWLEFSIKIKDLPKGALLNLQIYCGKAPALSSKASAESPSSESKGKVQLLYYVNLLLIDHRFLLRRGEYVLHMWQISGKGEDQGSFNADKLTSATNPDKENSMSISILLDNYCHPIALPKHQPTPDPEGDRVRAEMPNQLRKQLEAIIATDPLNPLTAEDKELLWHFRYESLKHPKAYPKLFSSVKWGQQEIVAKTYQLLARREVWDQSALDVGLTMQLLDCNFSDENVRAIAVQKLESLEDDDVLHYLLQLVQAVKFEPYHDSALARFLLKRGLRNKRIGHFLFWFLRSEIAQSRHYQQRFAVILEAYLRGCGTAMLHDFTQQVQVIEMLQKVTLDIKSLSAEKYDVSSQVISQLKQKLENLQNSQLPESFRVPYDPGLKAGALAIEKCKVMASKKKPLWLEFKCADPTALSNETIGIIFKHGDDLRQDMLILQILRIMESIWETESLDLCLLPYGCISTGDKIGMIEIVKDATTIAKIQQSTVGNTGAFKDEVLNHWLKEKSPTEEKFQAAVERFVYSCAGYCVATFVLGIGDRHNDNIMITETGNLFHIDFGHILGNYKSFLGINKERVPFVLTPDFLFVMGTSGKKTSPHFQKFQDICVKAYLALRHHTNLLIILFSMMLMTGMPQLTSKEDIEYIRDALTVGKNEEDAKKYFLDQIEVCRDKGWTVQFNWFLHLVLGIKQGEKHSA
T2 sequence (P42336 whole entry): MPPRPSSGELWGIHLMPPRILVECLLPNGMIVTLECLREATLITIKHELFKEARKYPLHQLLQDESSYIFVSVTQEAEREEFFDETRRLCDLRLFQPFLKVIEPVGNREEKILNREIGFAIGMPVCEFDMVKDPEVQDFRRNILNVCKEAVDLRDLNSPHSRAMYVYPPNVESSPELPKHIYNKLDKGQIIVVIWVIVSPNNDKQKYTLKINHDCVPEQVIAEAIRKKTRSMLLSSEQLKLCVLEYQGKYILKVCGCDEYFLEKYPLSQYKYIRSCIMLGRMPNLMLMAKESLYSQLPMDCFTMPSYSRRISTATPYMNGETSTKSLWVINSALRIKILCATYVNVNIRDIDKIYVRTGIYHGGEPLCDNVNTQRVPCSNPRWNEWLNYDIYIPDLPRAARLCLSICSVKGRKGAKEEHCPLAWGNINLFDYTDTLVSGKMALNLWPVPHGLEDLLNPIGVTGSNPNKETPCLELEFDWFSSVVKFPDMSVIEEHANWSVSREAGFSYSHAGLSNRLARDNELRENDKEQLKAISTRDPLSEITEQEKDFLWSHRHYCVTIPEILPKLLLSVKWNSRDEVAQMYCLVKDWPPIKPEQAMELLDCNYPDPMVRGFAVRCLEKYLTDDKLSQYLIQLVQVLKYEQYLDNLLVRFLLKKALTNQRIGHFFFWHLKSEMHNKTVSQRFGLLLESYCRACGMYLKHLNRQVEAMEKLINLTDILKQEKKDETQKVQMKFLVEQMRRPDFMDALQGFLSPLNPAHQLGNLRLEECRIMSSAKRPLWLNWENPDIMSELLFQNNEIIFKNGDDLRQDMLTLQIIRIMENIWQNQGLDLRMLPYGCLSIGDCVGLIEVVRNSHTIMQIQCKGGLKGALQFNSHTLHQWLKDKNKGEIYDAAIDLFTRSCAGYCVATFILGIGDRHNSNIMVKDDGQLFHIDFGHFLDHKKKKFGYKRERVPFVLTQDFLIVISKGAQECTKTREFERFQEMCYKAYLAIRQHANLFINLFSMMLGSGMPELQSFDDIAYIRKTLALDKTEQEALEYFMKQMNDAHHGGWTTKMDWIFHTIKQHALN
T2 sequence (P27986 whole entry partner): as the sequence (P27986 whole entry partner) above

IC50 (PI3Kγ) [nM] | IC50 (PI3Kα) [nM] | IC50 (PI3Kβ) [nM] | IC50 (PI3Kδ) [nM] | IC50 [1] [nM] | IC50 ([1]; Homo sapiens, MCF7, 2 h) [nM] | Structure (SMILES)
29.2 | 10.5 | 1150 | 41.1 | 193 | – | CNC(=O)C(C)Cn1cnc2c(F)cc(-c3cnc(OC)c(NS(=O)(=O)c4ccc(F)cc4Cl)c3)cc2c1=O (single isomer, unassigned) [WX105]
4.57 | 1.16 | 68.5 | 3.88 | – | 16.8 | COc1ncc(-c2ccc3ncn(CCC(N)=O)c(=O)c3c2)cc1NS(=O)(=O)c1ccc(F)cc1Cl [WX001]
19.6 | 1 | 279 | 4.53 | – | 279 | Cc1nc(C)c(S(=O)(=O)Nc2cc(-c3ccc4ncn(CCCC(=O)NC(C)C)c(=O)c4c3)cnc2C)s1 [WX006]
15.2 | 1.22 | 95.9 | 5.25 | – | 209 | CNC(=O)[C@H]1C[C@H](n2cnc3ccc(-c4cnc(C)c(NS(=O)(=O)c5ccc(F)cc5Cl)c4)cc3c2=O)C1 [WX013]
20.6 | 5.71 | 82.4 | 2.02 | – | 39.9 | COc1ncc(-c2ccc3ncn(CC4(C(N)=O)CC4)c(=O)c3c2)cc1NS(=O)(=O)c1ccc(F)cc1Cl [WX023]
39.9 | 5.4 | 183 | 25.6 | – | 134 | COc1ncc(-c2ccc3ncn(CC(N)C(N)=O)c(=O)c3c2)cc1NS(=O)(=O)c1ccc(F)cc1Cl (stereo not shown) [WX040]
37.8 | 5.39 | 633 | 37.5 | 53.6 | – | CNC(=O)[C@@H](C)Cn1cnc2ccc(-c3cnc(OC)c(NS(=O)(=O)c4cc(F)cc(F)c4)c3)cc2c1=O [WX192]
17 | 3.42 | 432 | 16.4 | 84.9 | – | CNC(=O)[C@@H](C)Cn1cnc2ccc(-c3cnc(OC)c(NS(=O)(=O)c4ccc(F)cc4C(F)(F)F)c3)cc2c1=O [WX194]
